The target in the experiment is T1, ORP2A (His-ORP2A; ORP2A-His) (Arabidopsis thaliana, UniProt Q940Y1).
T1 construct: full-length, His6 tag kept (N-terminal in pET16b; also ORP2A-His), E. coli BL21
T1 sequence (Q940Y1 1-721): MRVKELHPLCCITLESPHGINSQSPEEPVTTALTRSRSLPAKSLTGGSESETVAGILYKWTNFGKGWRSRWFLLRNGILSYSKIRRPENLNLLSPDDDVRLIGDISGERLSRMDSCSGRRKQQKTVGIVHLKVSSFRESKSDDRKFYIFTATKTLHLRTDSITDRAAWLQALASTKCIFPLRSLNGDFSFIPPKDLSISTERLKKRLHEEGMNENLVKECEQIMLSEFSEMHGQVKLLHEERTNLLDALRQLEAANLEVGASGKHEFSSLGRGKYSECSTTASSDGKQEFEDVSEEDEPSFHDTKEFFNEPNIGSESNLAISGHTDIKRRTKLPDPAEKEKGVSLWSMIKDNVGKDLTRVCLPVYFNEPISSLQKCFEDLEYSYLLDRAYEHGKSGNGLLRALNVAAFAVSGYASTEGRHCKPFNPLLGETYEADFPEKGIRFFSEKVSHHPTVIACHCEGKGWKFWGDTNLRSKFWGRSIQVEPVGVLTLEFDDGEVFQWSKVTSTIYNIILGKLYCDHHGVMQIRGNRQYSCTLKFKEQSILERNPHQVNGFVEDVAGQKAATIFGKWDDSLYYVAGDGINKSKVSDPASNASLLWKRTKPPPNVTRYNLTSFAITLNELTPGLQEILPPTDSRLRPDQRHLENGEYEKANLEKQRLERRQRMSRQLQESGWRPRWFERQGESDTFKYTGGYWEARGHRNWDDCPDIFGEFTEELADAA
In words: protein-lipid overlay (fat blot), anti-His immunoblot. It is filed as binding. To be noted: 15 μg sterol spotted on nitrocellulose; overnight incubation in purified protein. On the technique in general: A western blot detects proteins with antibodies after separation by electrophoresis.
Regarding `CC(C)[C@H](C)CC[C@@H](C)[C@H]1CC[C@H]2[C@@H]3CC=C4C[C@@H](O)CC[C@]4(C)[C@H]3CC[C@]12C` [campesterol], the “protein-lipid overlay (fat blot), anti-His immunoblot” value (shortened to “protein-lipid overlay (fat blot)”) was “recombinant ORP2A-His shows that the protein interacts with β-sitosterol, stigmasterol and campesterol”.

Consider `CC[C@H](/C=C/[C@@H](C)[C@H]1CC[C@H]2[C@@H]3CC=C4C[C@@H](O)CC[C@]4(C)[C@H]3CC[C@]12C)C(C)C` [stigmasterol], for which the “protein-lipid overlay (fat blot)” value was “recombinant ORP2A-His shows that the protein interacts with β-sitosterol, stigmasterol and campesterol”.

`CC[C@H](CC[C@@H](C)[C@H]1CC[C@H]2[C@@H]3CC=C4C[C@@H](O)CC[C@]4(C)[C@H]3CC[C@]12C)C(C)C` [β-sitosterol]: the “protein-lipid overlay (fat blot)” value was “recombinant ORP2A-His shows that the protein interacts with β-sitosterol, stigmasterol and campesterol”.

The record behind these values is publication PMC11255254, “ER-associated VAP27-1 and VAP27-3 proteins functionally link the lipid-binding ORP2A at the ER-chloroplast contact sites” (Nature Communications, 2024).
